# Measured values reported in ChEMBL document CHEMBL4311992, “Discovery of 3-(((9H-purin-6-yl)amino)methyl)-4,6-dimethylpyridin-2(1H)-one derivatives as novel tubulin polymerization inhibitors for treatment of cancer” (Eur J Med Chem, 2019).
# Activity calls are given as the source filed them. The rule behind the calls is not given here.
# How the values were obtained:
# SW-620 [1] = assay: Induction of apoptosis in human SW620 cells assessed as early apoptotic cells at 50 nM measured after 48 hrs by Annexin V-FITC/propidium iodide staining-based flow cytometry (reference value: 0.773%); format: functional
# MDA-MB-231 = assay: Antiproliferative activity against human MDA-MB-231 cells assessed as reduction in cell viability after 72 hrs by MTT assay; format: functional, cell-based; conditions: MDA-MB-231, 72 h
# [2] = molecular target: Serine/threonine-protein kinase 32A (Homo sapiens) (UniProt Q8WU08); assay: Inhibition of recombinant full-length human STK32A assessed as residual activity at 10 uM using casein as substrate measured after 120 mins in presence of [gamma33P]ATP by scintillation counting method
# [3] = tested on: Ribosomal protein S6 kinase beta-1 (Homo sapiens), P23443 [T412E]; assay: Inhibition of recombinant human p70S6K T412E mutant (1 to 421 residues) assessed as residual activity at 10 uM using KKRNRTLTV as substrate measured after 40 mins in presence of [gamma33P]ATP by scintillation counting method
# Chain of Ribosomal protein S6 kinase beta-1 (Homo sapiens), P23443 [T412E] (P23443 whole entry T412E, looked up, the tested form may be a part): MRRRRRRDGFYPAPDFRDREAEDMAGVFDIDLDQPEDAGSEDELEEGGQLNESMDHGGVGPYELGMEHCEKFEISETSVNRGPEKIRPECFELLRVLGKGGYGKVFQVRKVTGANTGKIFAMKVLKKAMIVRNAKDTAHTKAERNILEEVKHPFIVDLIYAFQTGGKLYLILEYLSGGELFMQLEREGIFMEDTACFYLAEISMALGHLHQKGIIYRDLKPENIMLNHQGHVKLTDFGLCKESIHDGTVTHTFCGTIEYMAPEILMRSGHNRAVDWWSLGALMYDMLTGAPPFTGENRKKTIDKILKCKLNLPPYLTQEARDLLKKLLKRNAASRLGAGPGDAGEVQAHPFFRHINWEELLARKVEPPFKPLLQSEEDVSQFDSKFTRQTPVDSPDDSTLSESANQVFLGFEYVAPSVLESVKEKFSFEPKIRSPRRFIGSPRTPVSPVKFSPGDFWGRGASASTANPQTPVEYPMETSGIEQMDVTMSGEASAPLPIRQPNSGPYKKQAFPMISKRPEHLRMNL
# [4] = Toxicity in Balb/c mouse spleen at 80 mg/kg after 4 weeks by hematoxylin and eosin staining-based assay; format: organism-based; conditions: in vivo, 672 h
# [5] = molecular target: Aurora kinase B (Homo sapiens) (UniProt Q96GD4); assay: Inhibition of recombinant full-length human AURKB assessed as residual activity at 10 uM using AKRRRLSSLRA as substrate measured after 40 mins in presence of [gamma33P]ATP by scintillation counting method
# Chain of Aurora kinase B (Homo sapiens) (Q96GD4 whole entry, the tested form may be a part, canonical isoform): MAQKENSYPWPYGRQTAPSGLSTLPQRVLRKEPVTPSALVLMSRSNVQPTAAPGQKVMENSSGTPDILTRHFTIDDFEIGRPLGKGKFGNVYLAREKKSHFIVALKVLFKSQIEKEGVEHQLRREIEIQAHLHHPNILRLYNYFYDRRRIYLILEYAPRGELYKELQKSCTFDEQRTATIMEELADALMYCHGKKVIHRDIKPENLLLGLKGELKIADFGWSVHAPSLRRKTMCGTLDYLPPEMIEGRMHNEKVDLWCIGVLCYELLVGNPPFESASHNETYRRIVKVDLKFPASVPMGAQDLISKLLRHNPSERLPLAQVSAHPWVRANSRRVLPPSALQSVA
# [6] = tested on: Casein kinase I isoform gamma-3 (Homo sapiens), Q9Y6M4 [UNDEFINED MUTATION]; assay: Inhibition of recombinant human CK1gamma3 K91E/R174G/E302D mutant (1 to 330 residues) assessed as residual activity at 10 uM using KRRRALS(p)VASLPGL as substrate measured after 40 mins in presence of [gamma33P]ATP by scintillation counting method
# [7] = molecular target: Serine/threonine-protein kinase pim-1 (Homo sapiens) (UniProt P11309); assay: Inhibition of recombinant full-length human Pim1 assessed as residual activity at 10 uM using KKRNRTLTV as substrate measured after 40 mins in presence of [gamma33P]ATP by scintillation counting method
# [8] = molecular target: Calcium/calmodulin-dependent protein kinase type II subunit beta (Homo sapiens) (UniProt Q13554); assay: Inhibition of recombinant full-length human CaMK2beta (1 to 315 residues) assessed as residual activity at 10 uM using calmodulin as substrate measured after 40 mins in presence of [gamma33P]ATP by scintillation counting method
# Chain of Calcium/calmodulin-dependent protein kinase type II subunit beta (Homo sapiens) (Q13554 whole entry, the tested form may be a part): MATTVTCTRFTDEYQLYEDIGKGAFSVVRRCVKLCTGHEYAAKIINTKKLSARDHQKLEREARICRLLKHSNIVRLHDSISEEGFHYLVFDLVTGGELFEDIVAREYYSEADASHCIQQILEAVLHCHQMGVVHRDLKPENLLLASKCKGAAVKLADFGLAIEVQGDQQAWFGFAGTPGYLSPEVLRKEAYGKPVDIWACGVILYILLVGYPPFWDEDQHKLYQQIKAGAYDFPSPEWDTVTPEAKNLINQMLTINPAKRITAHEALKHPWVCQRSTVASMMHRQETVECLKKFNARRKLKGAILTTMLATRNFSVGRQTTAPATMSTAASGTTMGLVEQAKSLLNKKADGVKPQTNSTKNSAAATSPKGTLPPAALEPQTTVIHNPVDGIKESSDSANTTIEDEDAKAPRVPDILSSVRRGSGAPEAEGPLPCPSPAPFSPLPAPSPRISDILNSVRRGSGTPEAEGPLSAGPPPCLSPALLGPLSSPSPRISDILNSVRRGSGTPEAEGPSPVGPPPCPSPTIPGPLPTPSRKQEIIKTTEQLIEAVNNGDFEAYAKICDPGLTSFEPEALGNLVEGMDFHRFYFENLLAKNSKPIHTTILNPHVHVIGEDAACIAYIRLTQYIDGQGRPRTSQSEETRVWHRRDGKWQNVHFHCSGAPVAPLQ
# [9] = molecular target: Tyrosine-protein kinase JAK1 (Homo sapiens) (UniProt P23458); assay: Inhibition of recombinant human JAK1 (866 to end residues) assessed as residual activity at 10 uM using GEEPLYWSFPAKKK as substrate measured after 40 mins in presence of [gamma33P]ATP by scintillation counting method
# SW-620 [10] = assay: Induction of apoptosis in human SW620 cells assessed as viable cells at 25 nM measured after 48 hrs by Annexin V-FITC/propidium iodide staining-based flow cytometry (reference value: 94.7%); format: functional; conditions: SW-620, 48 h, read-out: Activity
# [11] = molecular target: Serine/threonine-protein kinase Nek1 (Homo sapiens) (UniProt Q96PY6); assay: Inhibition of recombinant human NEK1 (1 to 505 residues) assessed as residual activity at 10 uM using RLGRDKYKTLRQIRQ as substrate measured after 40 mins in presence of [gamma33P]ATP by scintillation counting method
# SW-620 [12] = assay: Induction of cell cycle arrest in human SW620 cells assessed as accumulation at G2/M phase after 24 hrs by propidium iodide-staining based flow cytometry; format: functional
# Tubulin (Sus scrofa) = Tubulin (Sus scrofa) (UniProt P02554+P02550); assay: Inhibition of porcine brain tubulin polymerization at 0.05 to 30 uM by fluorescence assay
# Chain of Tubulin (Sus scrofa) (P02550 whole entry, looked up, the tested form may be a part): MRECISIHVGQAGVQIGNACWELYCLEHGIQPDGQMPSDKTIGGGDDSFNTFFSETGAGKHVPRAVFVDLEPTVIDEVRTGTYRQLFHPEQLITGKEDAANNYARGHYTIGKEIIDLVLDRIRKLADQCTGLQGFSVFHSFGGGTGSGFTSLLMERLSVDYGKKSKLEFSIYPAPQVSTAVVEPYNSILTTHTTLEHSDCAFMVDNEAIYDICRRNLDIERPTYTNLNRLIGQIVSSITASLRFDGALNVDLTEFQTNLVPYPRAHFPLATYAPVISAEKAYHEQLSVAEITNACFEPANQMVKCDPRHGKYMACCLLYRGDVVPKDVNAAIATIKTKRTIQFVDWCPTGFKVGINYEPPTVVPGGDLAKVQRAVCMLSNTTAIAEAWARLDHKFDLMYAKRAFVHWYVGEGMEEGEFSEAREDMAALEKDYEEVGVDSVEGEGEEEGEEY
# Chain of Tubulin (Sus scrofa) (P02554 whole entry, looked up, the tested form may be a part): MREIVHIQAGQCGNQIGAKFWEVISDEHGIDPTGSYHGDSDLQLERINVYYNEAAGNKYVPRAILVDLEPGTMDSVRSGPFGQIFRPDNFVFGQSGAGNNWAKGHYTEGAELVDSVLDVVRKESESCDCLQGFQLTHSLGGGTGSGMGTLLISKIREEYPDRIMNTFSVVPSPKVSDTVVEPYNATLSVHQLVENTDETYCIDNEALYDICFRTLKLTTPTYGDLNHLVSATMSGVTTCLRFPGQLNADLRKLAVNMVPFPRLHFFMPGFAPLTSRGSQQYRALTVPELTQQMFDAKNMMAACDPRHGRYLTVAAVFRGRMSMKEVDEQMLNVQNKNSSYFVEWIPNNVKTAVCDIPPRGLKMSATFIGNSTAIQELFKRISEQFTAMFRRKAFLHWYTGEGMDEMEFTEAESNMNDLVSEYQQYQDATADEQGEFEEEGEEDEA
# [13] = molecular target: Tau-tubulin kinase 2 (Homo sapiens) (UniProt Q6IQ55); assay: Inhibition of human TTBK2 (1 to 331 residues) using Casein as substrate measured after 40 mins in presence of [gamma33P]ATP by scintillation counting method; parameters: scale not given: the % may be the effect or the level left
# Chain of Tau-tubulin kinase 2 (Homo sapiens) (Q6IQ55 whole entry, the tested form may be a part): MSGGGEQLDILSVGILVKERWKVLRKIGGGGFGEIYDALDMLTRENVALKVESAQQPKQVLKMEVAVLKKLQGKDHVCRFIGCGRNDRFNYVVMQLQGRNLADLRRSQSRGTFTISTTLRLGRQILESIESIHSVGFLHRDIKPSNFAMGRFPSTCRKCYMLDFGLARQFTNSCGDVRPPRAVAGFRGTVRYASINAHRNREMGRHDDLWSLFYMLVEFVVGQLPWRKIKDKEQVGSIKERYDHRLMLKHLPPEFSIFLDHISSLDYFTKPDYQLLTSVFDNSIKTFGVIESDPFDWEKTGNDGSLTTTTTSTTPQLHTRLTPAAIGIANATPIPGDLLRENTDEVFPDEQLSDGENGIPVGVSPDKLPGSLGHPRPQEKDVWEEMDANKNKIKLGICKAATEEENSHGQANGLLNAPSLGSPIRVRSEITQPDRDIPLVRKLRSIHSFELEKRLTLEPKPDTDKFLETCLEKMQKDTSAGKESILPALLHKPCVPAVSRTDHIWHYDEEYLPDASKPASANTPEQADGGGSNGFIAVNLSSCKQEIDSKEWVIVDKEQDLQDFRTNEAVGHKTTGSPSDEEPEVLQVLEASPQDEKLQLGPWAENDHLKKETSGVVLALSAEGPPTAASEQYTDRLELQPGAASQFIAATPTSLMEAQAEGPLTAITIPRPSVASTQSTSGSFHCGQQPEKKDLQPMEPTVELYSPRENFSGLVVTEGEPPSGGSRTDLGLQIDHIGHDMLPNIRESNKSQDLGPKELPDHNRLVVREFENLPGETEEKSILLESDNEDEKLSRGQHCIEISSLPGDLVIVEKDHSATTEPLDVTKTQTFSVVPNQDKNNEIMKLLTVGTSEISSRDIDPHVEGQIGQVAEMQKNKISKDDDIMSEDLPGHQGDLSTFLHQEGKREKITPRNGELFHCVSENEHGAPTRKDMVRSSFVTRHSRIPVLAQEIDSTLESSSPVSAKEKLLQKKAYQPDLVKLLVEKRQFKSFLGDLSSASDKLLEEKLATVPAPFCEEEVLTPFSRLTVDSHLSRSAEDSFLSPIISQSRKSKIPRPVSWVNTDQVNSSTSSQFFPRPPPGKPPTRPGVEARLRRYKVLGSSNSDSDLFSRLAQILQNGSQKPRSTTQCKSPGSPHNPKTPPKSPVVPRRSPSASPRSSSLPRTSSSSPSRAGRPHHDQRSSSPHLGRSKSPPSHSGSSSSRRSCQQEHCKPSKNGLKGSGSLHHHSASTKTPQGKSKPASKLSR
# [14] = molecular target: Casein kinase I (Homo sapiens) (UniProt Q9HCP0+P78368+P48730+P49674+P48729); assay: Inhibition of CK1 (unknown origin) assessed as residual activity at 10 uM; format: protein assay
# [15] = molecular target: Mitogen-activated protein kinase kinase kinase 10 (Homo sapiens) (UniProt Q02779); assay: Inhibition of recombinant human MLK2 (1 to 449 residues) assessed as residual activity at 10 uM using myelin basic protein as substrate measured after 40 mins in presence of [gamma33P]ATP by scintillation counting method
# Chain of Mitogen-activated protein kinase kinase kinase 10 (Homo sapiens) (Q02779 whole entry, looked up, the tested form may be a part): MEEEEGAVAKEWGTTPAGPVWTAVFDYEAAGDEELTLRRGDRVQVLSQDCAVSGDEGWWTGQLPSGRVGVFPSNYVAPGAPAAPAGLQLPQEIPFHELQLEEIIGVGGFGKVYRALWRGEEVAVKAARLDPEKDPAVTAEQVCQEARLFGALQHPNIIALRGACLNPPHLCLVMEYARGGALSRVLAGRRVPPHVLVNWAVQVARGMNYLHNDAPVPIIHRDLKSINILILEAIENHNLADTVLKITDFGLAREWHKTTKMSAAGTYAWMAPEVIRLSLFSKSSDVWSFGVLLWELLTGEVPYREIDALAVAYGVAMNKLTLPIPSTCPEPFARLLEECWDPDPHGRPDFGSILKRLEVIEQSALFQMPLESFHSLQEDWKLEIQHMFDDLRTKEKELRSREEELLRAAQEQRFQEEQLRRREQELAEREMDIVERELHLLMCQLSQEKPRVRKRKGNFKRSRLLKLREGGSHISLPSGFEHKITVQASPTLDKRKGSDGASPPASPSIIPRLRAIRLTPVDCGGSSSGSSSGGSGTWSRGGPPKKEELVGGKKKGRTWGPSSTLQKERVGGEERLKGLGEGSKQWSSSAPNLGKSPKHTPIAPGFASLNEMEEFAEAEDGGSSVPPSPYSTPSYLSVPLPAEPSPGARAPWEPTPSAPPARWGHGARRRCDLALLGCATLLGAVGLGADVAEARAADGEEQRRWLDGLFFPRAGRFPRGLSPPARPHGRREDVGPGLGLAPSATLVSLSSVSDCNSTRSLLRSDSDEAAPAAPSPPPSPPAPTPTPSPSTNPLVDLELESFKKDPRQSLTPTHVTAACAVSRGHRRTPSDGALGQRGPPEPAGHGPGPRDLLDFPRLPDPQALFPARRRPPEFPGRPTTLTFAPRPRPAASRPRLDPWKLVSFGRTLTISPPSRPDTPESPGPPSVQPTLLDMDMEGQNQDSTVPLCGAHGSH
# [16] = molecular target: Serine/threonine-protein kinase 26 (Homo sapiens) (UniProt Q9P289); assay: Inhibition of recombinant human MST4 (4 to 304 residues) assessed as residual activity at 10 uM using RLGRDKYKTLRQIRQ as substrate measured after 40 mins in presence of [gamma33P]ATP by scintillation counting method
# Chain of Serine/threonine-protein kinase 26 (Homo sapiens) (Q9P289 2-416 limits assumed): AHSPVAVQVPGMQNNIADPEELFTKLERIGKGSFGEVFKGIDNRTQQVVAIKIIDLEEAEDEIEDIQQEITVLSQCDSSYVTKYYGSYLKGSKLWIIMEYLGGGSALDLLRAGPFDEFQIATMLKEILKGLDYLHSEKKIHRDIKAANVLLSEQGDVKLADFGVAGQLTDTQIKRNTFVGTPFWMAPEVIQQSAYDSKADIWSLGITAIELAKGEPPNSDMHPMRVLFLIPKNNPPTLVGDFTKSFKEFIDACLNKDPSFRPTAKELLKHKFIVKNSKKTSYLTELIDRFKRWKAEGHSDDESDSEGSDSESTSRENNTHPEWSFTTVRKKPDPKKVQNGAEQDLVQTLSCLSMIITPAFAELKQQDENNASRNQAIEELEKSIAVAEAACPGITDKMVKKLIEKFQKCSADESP
# [17] = molecular target: Proto-oncogene tyrosine-protein kinase Src (Homo sapiens) (UniProt P12931); assay: Inhibition of recombinant full-length human SRC assessed as residual activity at 10 uM using Cdc2 peptide as substrate measured after 40 mins in presence of [gamma33P]ATP by scintillation counting method
# [18] = tested on: Serine/threonine-protein kinase TAO3 (Homo sapiens), Q9H2K8 [UNDEFINED MUTATION]; assay: Inhibition of human TAO3 (1 to 411 residues) using myelin basic protein as substrate measured after 40 mins in presence of [gamma33P]ATP by scintillation counting method; parameters: scale not given: the % may be the effect or the level left
# HCT-116 [19] = assay: Induction of apoptosis in human HCT116 cells assessed as early apoptotic cells at 100 nM measured after 48 hrs by Annexin V-FITC/propidium iodide staining-based flow cytometry (reference value: 0.418%); format: functional
# [20] = molecular target: Tyrosine-protein kinase ITK/TSK (Homo sapiens) (UniProt Q08881); assay: Inhibition of recombinant human ITK (352 to 617 residues) assessed as residual activity at 10 uM using myelin basic protein as substrate measured after 40 mins in presence of [gamma33P]ATP by scintillation counting method
# SW-620 [21] = assay: Induction of apoptosis in human SW620 cells assessed as necrotic cells at 25 nM measured after 48 hrs by Annexin V-FITC/propidium iodide staining-based flow cytometry (reference value: 2.71%); format: functional
# HCT-116 [22] = assay: Induction of apoptosis in human HCT116 cells assessed as increase in cleaved caspase9 expression measured after 48 hrs by Western blot analysis; format: functional, cell-based
# [23] = molecular target: Protein kinase C zeta type (Homo sapiens) (UniProt Q05513); assay: Inhibition of recombinant human PKCzeta (2 to end residues) assessed as residual activity at 10 uM using ERMRPRKRQGSVRRRV as substrate measured after 40 mins in presence of [gamma33P]ATP by scintillation counting method
# HCT-116 [24] = assay: Induction of apoptosis in human HCT116 cells assessed as viable cells at 50 nM measured after 48 hrs by Annexin V-FITC/propidium iodide staining-based flow cytometry (reference value: 94.5%); format: functional; conditions: HCT-116, 48 h, read-out: Activity
smiles,measurement,setting,value
Cc1cc(C)c(CNc2nc(Cl)nc3c2ncn3C2CCCC2)c(=O)[nH]1,Activity,SW-620 [1],1.01%
same,IC50,MDA-MB-231,200 nM
same,Activity,[2],100%
same,Activity,[3],105%
same,Activity,[4],Non-Toxic
same,Activity,[5],143%
same,Activity,[6],106%
same,Activity,[7],106%
same,Activity,[8],99.5%
same,Activity,[9],97.5%
same,viability at 0.025 µM,SW-620 [10],61.8%
same,Activity,[11],114%
same,Activity,SW-620 [12],Dose-dependent effect
same,inhibition,Tubulin (Sus scrofa),Active
same,Activity,[13],104%
same,Activity,[14],106%
same,Activity,[15],91%
same,Activity,[16],132%
same,Activity,[17],130%
same,Activity,[18],97%
same,Activity,HCT-116 [19],5.35%
same,Activity,[20],63 to 75%
same,Activity,SW-620 [21],2.71%
same,Activity,HCT-116 [22],Dose-dependent effect
same,Activity,[23],99.5%
same,viability at 0.05 µM,HCT-116 [24],42.6%
